{
  "source": "patent US20130072576A1",
  "about": "“Cationic Nanogels For Biotechnological Applications” (Universidad Del Pais Vasco, priority 2010, published 2013)",
  "origin": "cited, not measured here",
  "data": [
    {"smiles": "C=CN1CCCCCC1=O", "note": "[VCL, N-vinylcaprolactam]", "values": [
      {"measurement": "solubility in water", "value": 8.5, "unit": "% by weight"}
    ]}
  ]
}
